# Laboratory results: patent US20060069132A1, “Azolecarboxamide herbicides” (priority 2004, published 2006)
# Legend:
# barnyardgrass [1] = assay: Test A pre-/postemergence herbicide test; format: in vivo, Echinochloa crus-galli
# How it was run: (§1)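 Plants are held in greenhouse about ten days after treatment, then compared with untreated controls and scored 0 (no effect) to 100 (complete control). Preemergence dosing is a directed soil spray on sown sandy loam; postemergence dosing is spray to runoff at 2–10 cm height.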
# large crabgrass [2] = assay: Test A pre-/postemergence herbicide test; format: in vivo, Digitaria sanguinalis
# How it was run: as §1
# giant foxtail [3] = assay: Test A pre-/postemergence herbicide test; format: in vivo, Setaria faberi
# How it was run: as §1
# morningglory [4] = assay: Test A pre-/postemergence herbicide test; format: in vivo, Ipomoea spp.
# How it was run: as §1
# redroot pigweed = assay: Test A pre-/postemergence herbicide test; format: in vivo, Amaranthus retroflexus
# How it was run: as §1
# velvetleaf [5] = assay: Test A pre-/postemergence herbicide test; format: in vivo, Abutilon theophrasti
# How it was run: as §1
# barnyardgrass [6] = assay: Test B pre-/postemergence herbicide test; format: in vivo, Echinochloa crus-galli; conditions: for Barnyardgrass plant response rating: postemergence, visual rating, scale 0 (no effect) to 100 (complete control)
# How it was run: (§2)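 Species tested were Echinochloa crus-galli, Ipomoea coccinea, Xanthium strumarium and Oryza sativa, treated both before emergence and at the 1- to 4-leaf stage; rice and barnyardgrass were also tested under flooding at 2 leaves. Greenhouse incubation lasted 13–15 days before visual 0–100 scoring.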
# Surinam grass = assay: Test B pre-/postemergence herbicide test; format: in vivo, Urochloa decumbens; conditions: for Surinam Grass plant response rating: postemergence, visual rating, scale 0 (no effect) to 100 (complete control)
# How it was run: (§3)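 Seeds were planted and treated preemergence with compounds formulated in a non-phytotoxic solvent mixture containing surfactant, while plants at the 1- to 4-leaf stage (2 to 18 cm) received postemergence sprays. Flooded paddy plants were grown to the 2-leaf stage. After 13 to 15 days in a greenhouse, injury was visually rated 0–100 against untreated controls.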
# cocklebur = assay: Test B pre-/postemergence herbicide test; format: in vivo, Xanthium strumarium; conditions: for Cocklebur plant response rating: postemergence, visual rating, scale 0 (no effect) to 100 (complete control)
# How it was run: as §2
# corn = assay: Test B pre-/postemergence herbicide test; format: in vivo, Zea mays; conditions: for Corn plant response rating: postemergence, visual rating, scale 0 (no effect) to 100 (complete control)
# How it was run: as §3
# large crabgrass [7] = assay: Test B pre-/postemergence herbicide test; format: in vivo, Digitaria sanguinalis; conditions: for Crabgrass, Large plant response rating: postemergence, visual rating, scale 0 (no effect) to 100 (complete control)
# How it was run: as §3
# giant foxtail [8] = assay: Test B pre-/postemergence herbicide test; format: in vivo, Setaria faberi; conditions: for Foxtail, Giant plant response rating: postemergence, visual rating, scale 0 (no effect) to 100 (complete control)
# How it was run: as §3
# lambsquarters = assay: Test B pre-/postemergence herbicide test; format: in vivo, Chenopodium album; conditions: for Lambsquarters plant response rating: postemergence, visual rating, scale 0 (no effect) to 100 (complete control)
# How it was run: as §3
# morningglory [9] = assay: Test B pre-/postemergence herbicide test; format: in vivo, Ipomoea coccinea; conditions: for Morningglory plant response rating: postemergence, visual rating, scale 0 (no effect) to 100 (complete control)
# How it was run: as §2
# pigweed = assay: Test B pre-/postemergence herbicide test; format: in vivo, Amaranthus retroflexus; conditions: for Pigweed plant response rating: postemergence, visual rating, scale 0 (no effect) to 100 (complete control)
# How it was run: as §3
# rice [10] = assay: Test B pre-/postemergence herbicide test; format: in vivo, Oryza sativa; conditions: preemergence
# How it was run: as §3
# velvetleaf [11] = assay: Test B pre-/postemergence herbicide test; format: in vivo, Abutilon theophrasti; conditions: for Velvetleaf plant response rating: postemergence, visual rating, scale 0 (no effect) to 100 (complete control)
# How it was run: as §3
# blackgrass = assay: Test B postemergence herbicide test; format: in vivo, Alopecurus myosuroides; conditions: postemergence, visual rating, scale 0 (no effect) to 100 (complete control)
# How it was run: (§4)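 Plants grow to 1- to 4-leaf stage (2–18 cm) for postemergence spraying, or to 2-leaf stage for the paddy test. Formulated compound is applied. Greenhouse holding lasts 13–15 days. Response is scored visually relative to controls, 0 no effect to 100 complete control; a dash means no result.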
# wheat = assay: Test B postemergence herbicide test; format: in vivo, Triticum aestivum; parameters: key to Wheat plant response rating: 0 = no effect, 100 = complete control; conditions: postemergence, visual rating, scale 0 (no effect) to 100 (complete control)
# How it was run: (§5)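 After treating 2-leaf paddy plants or 2–18 cm postemergence plants (1 to 4 leaves) with formulated chemical, researchers kept them in a greenhouse for 13–15 days. Effects were judged visually versus controls: 0 indicates none, 100 total control.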
# wild oat = assay: Test B postemergence herbicide test; format: in vivo, Avena fatua; conditions: postemergence, visual rating, scale 0 (no effect) to 100 (complete control)
# How it was run: as §5
# rice [12] = assay: Test B flooded paddy test; format: in vivo, Oryza sativa; conditions: 1000 g ai/ha, visual rating, scale 0 to 100 (0 no effect, 100 complete control), 13 to 15 days
# How it was run: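 Visual ratings, 0 (no effect) to 100 (complete control), made versus controls after 13–15 d greenhouse. Paddy plants treated at 2-leaf stage; postemergence plants at 1- to 4-leaf stage, 2–18 cm tall.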
# [13] = test system: small flower umbrella sedge; assay: Test B flooded paddy test; format: in vivo, Cyperus difformis; conditions: 1000 g ai/ha, visual rating, scale 0 to 100 (0 no effect, 100 complete control), 13 to 15 days
# How it was run: as §4
# ducksalad = assay: Test B flooded paddy test; format: in vivo, Heteranthera limosa; conditions: 1000 g ai/ha, visual rating, scale 0 to 100 (0 no effect, 100 complete control), 13 to 15 days
# How it was run: as §4
# barnyardgrass [14] = assay: Test B flooded paddy test; format: in vivo, Echinochloa crus-galli; conditions: 1000 g ai/ha, visual rating, scale 0 to 100 (0 no effect, 100 complete control), 13 to 15 days
# How it was run: as §4
# [15] = Postemergence, 500 g ai/ha, 0 to 100 scale, 0 no effect, 100 complete control
# [16] = Postemergence, 2000 g ai/ha, 0 to 100 scale, 0 no effect, 100 complete control
# [17] = Preemergence, 2000 g ai/ha, visual rating, 0 to 100 scale (0 no effect, 100 complete control)
# [18] = preemergence, 500 g ai/ha, visual injury, 0 to 100 scale (0 no effect, 100 complete control)
# [19] = 125 g ai/ha, 0 = no effect, 100 = complete control, preemergence
# [20] = 500 g ai/ha, visual rating 0-100, 0 no effect, 100 complete control, preemergence
smiles,measurement,setting,value
CCc1nc(C(C)(C)C)sc1C(=O)Nc1cccc(C(=O)NCC(C)C)c1 [Compound 211],Barnyardgrass plant response rating,barnyardgrass [1]; [15],25
same,"Plant response rating, Barnyardgrass",barnyardgrass [1]; [16],55
same,Barnyardgrass plant response rating,barnyardgrass [1]; [17],70
same,Barnyardgrass plant response rating,barnyardgrass [1]; [18],55
same,"Crabgrass, Large plant response rating",large crabgrass [2]; [15],20
same,"Plant response rating, Crabgrass, Large",large crabgrass [2]; [16],30
same,"Crabgrass, Large plant response rating",large crabgrass [2]; [17],85
same,"Crabgrass, Large plant response rating",large crabgrass [2]; [18],75
same,"Foxtail, Giant plant response rating",giant foxtail [3]; [15],20
same,"Plant response rating, Foxtail, Giant",giant foxtail [3]; [16],30
same,"Foxtail, Giant plant response rating",giant foxtail [3]; [17],70
same,"Foxtail, Giant plant response rating",giant foxtail [3]; [18],45
same,Morningglory plant response rating,morningglory [4]; [15],20
same,"Plant response rating, Morningglory",morningglory [4]; [16],15
same,Morningglory plant response rating,morningglory [4]; [17],25
same,Morningglory plant response rating,morningglory [4]; [18],10
same,Pigweed plant response rating,redroot pigweed; [15],25
same,"Plant response rating, Pigweed",redroot pigweed; [16],25
same,Pigweed plant response rating,redroot pigweed; [17],40
same,Pigweed plant response rating,redroot pigweed; [18],30
same,Velvetleaf plant response rating,velvetleaf [5]; [15],15
same,"Plant response rating, Velvetleaf",velvetleaf [5]; [16],25
same,Velvetleaf plant response rating,velvetleaf [5]; [17],65
same,Velvetleaf plant response rating,velvetleaf [5]; [18],25
same,Barnyardgrass plant response rating (0 to 100 scale),barnyardgrass [6]; [19],10
same,"Plant response rating, Barnyardgrass",barnyardgrass [6]; [20],50
same,Barnyardgrass plant response rating,barnyardgrass [6]; 125 g ai/ha,10
same,Barnyardgrass plant response rating,barnyardgrass [6]; 500 g ai/ha,10
same,Surinam Grass plant response rating (0 to 100 scale),Surinam grass; [19],0
same,"Plant response rating, Surinam Grass",Surinam grass; [20],30
same,Surinam Grass plant response rating,Surinam grass; 125 g ai/ha,10
same,Surinam Grass plant response rating,Surinam grass; 500 g ai/ha,10
same,Cocklebur plant response rating (0 to 100 scale),cocklebur; [19],0
same,"Plant response rating, Cocklebur",cocklebur; [20],0
same,Cocklebur plant response rating,cocklebur; 125 g ai/ha,30
same,Cocklebur plant response rating,cocklebur; 500 g ai/ha,60
same,Corn plant response rating (0 to 100 scale),corn; [19],0
same,"Plant response rating, Corn",corn; [20],10
same,Corn plant response rating,corn; 125 g ai/ha,10
same,Corn plant response rating,corn; 500 g ai/ha,10
same,"Crabgrass, Large plant response rating (0 to 100 scale)",large crabgrass [7]; [19],10
same,"Plant response rating, Crabgrass, Large",large crabgrass [7]; [20],70
same,"Crabgrass, Large plant response rating",large crabgrass [7]; 125 g ai/ha,10
same,"Crabgrass, Large plant response rating",large crabgrass [7]; 500 g ai/ha,10
same,"Foxtail, Giant plant response rating (0 to 100 scale)",giant foxtail [8]; [19],10
same,"Plant response rating, Foxtail, Giant",giant foxtail [8]; [20],50
same,"Foxtail, Giant plant response rating",giant foxtail [8]; 125 g ai/ha,10
same,"Foxtail, Giant plant response rating",giant foxtail [8]; 500 g ai/ha,10
same,Lambsquarters plant response rating (0 to 100 scale),lambsquarters; [19],10
same,"Plant response rating, Lambsquarters",lambsquarters; [20],80
same,Lambsquarters plant response rating,lambsquarters; 125 g ai/ha,60
same,Lambsquarters plant response rating,lambsquarters; 500 g ai/ha,70
same,Morningglory plant response rating (0 to 100 scale),morningglory [9]; [19],0
same,"Plant response rating, Morningglory",morningglory [9]; [20],10
same,Morningglory plant response rating,morningglory [9]; 125 g ai/ha,10
same,Morningglory plant response rating,morningglory [9]; 500 g ai/ha,30
same,Pigweed plant response rating (0 to 100 scale),pigweed; [19],0
same,"Plant response rating, Pigweed",pigweed; [20],30
same,Pigweed plant response rating,pigweed; 125 g ai/ha,10
same,Pigweed plant response rating,pigweed; 500 g ai/ha,30
same,Rice plant response rating (0 to 100 scale),"rice [10]; 125 g ai/ha, 0 = no effect, 100 = complete control",0
same,"Plant response rating, Rice","rice [10]; 500 g ai/ha, visual rating 0-100, 0 no effect, 100 complete control",10
same,Velvetleaf plant response rating (0 to 100 scale),velvetleaf [11]; [19],0
same,"Plant response rating, Velvetleaf",velvetleaf [11]; [20],10
same,Velvetleaf plant response rating,velvetleaf [11]; 125 g ai/ha,30
same,Velvetleaf plant response rating,velvetleaf [11]; 500 g ai/ha,30
same,Blackgrass plant response rating,blackgrass; 125 g ai/ha,10
same,Blackgrass plant response rating,blackgrass; 500 g ai/ha,10
same,Wheat plant response rating,wheat; 125 g ai/ha,10
same,Wheat plant response rating,wheat; 500 g ai/ha,10
same,"Oat, Wild plant response rating",wild oat; 125 g ai/ha,10
same,"Oat, Wild plant response rating",wild oat; 500 g ai/ha,10
same,Rice plant response rating,rice [12],20
same,"Sedge, Umbrella plant response rating",[13],30
same,Ducksalad plant response rating,ducksalad,80
same,Barnyardgrass plant response rating,barnyardgrass [14],20
